{"source": "ChEMBL document CHEMBL3885861", "about": "“Open TG-GATES”", "species_on_record": "Rattus norvegicus", "experiment": "Open TG-GATES - Regimen: Daily Repeat", "assay_type": "toxicity, organism-based, Sprague-Dawley", "design": "regimen Daily Repeat, gender Male, age 6 weeks", "conditions": "in vivo, po, 0 mg/kg, route gavage, dose level Control; for APTT / Bas / Eos / Fbg / Hb / Ht / Lym / MCH / MCHC / MCV / Mono / Neu / PT / Plat / RBC / Ret / WBC: tissue Blood", "key": {"[1]": {"conditions": "72 h, tissue Kidney, time 3 day"}, "[2]": {"conditions": "72 h, tissue Plasma, time 3 day"}}, "data": [{"molecule": "Cc1cccc(C)c1OCC(C)N", "note": "(stereo unspecified) [MEXILETINE]", "values": [{"measurement": "TERMINAL_BW", "setting": "72 h, time 3 day", "result": 240.8, "unit": "g"}, {"measurement": "APTT", "setting": "72 h, time 3 day", "result": 20.3, "unit": "s"}, {"measurement": "Bas", "setting": "72 h, time 3 day", "result": 0, "unit": "%"}, {"measurement": "Eos", "setting": "72 h, time 3 day", "result": 0.8, "unit": "%"}, {"measurement": "Fbg", "setting": "72 h, time 3 day", "result": 302.4, "unit": "mg/dL"}, {"measurement": "Hb", "setting": "72 h, time 3 day", "result": 12.6, "unit": "g/dL"}, {"measurement": "Ht", "setting": "72 h, time 3 day", "result": 39.4, "unit": "%"}, {"measurement": "Lym", "setting": "72 h, time 3 day", "result": 81.6, "unit": "%"}, {"measurement": "MCH", "setting": "72 h, time 3 day", "result": 19.9, "unit": "pg"}, {"measurement": "MCHC", "setting": "72 h, time 3 day", "result": 32.1, "unit": "%"}, {"measurement": "MCV", "setting": "72 h, time 3 day", "result": 61.9, "unit": "fL"}, {"measurement": "Mono", "setting": "72 h, time 3 day", "result": 2.8, "unit": "%"}, {"measurement": "Neu", "setting": "72 h, time 3 day", "result": 13.8, "unit": "%"}, {"measurement": "PT", "setting": "72 h, time 3 day", "result": 15.8, "unit": "s"}, {"measurement": "Plat", "setting": "72 h, time 3 day", "result": 115, "unit": "x10_4/uL"}, {"measurement": "RBC", "setting": "72 h, time 3 day", "result": 636.6, "unit": "x10_4/ul"}, {"measurement": "Ret", "setting": "72 h, time 3 day", "result": 6.3, "unit": "%"}, {"measurement": "WBC", "setting": "72 h, time 3 day", "result": 120.4, "unit": "x10_2/uL"}, {"measurement": "KIDNEY_L", "setting": "[1]", "result": 1.1, "unit": "g"}, {"measurement": "KIDNEY_R", "setting": "[1]", "result": 1.1, "unit": "g"}, {"measurement": "KIDNEY_TOTAL", "setting": "[1]", "result": 2.2, "unit": "g"}, {"measurement": "LIVER", "setting": "72 h, tissue Liver, time 3 day", "result": 11.2, "unit": "g"}, {"measurement": "A/G", "setting": "[2]", "result": 1.3}, {"measurement": "ALP", "setting": "[2]", "result": 1769.2, "unit": "IU/L"}, {"measurement": "ALT", "setting": "[2]", "result": 44.8, "unit": "IU/L"}, {"measurement": "AST", "setting": "[2]", "result": 72.2, "unit": "IU/L"}, {"measurement": "BUN", "setting": "[2]", "result": 15.6, "unit": "mg/dL"}, {"measurement": "CRE", "setting": "[2]", "result": 0.1, "unit": "mg/dL"}, {"measurement": "Ca", "setting": "[2]", "result": 10.4, "unit": "mg/dL"}, {"measurement": "Cl", "setting": "[2]", "result": 106, "unit": "meq/L"}, {"measurement": "DBIL", "setting": "[2]", "result": 0, "unit": "mg/dL"}, {"measurement": "GLC", "setting": "[2]", "result": 201.2, "unit": "mg/dL"}, {"measurement": "IP", "setting": "[2]", "result": 7.6, "unit": "mg/dL"}, {"measurement": "K", "setting": "[2]", "result": 4.4, "unit": "meq/L"}, {"measurement": "LDH", "setting": "[2]", "result": 178, "unit": "IU/L"}, {"measurement": "Na", "setting": "[2]", "result": 142, "unit": "meq/L"}, {"measurement": "PL", "setting": "[2]", "result": 134, "unit": "mg/dL"}, {"measurement": "RALB", "setting": "[2]", "result": 3, "unit": "g/dL"}, {"measurement": "TBIL", "setting": "[2]", "result": 0.008, "unit": "mg/dL"}, {"measurement": "TC", "setting": "[2]", "result": 73.2, "unit": "mg/dL"}, {"measurement": "TG", "setting": "[2]", "result": 69.6, "unit": "mg/dL"}, {"measurement": "TP", "setting": "[2]", "result": 5.4, "unit": "g/dL"}, {"measurement": "gamma-GTP", "setting": "[2]", "result": 2.2, "unit": "IU/L"}, {"measurement": "TERMINAL_BW", "setting": "[…], time 7 day", "result": 274.3, "unit": "g"}, {"measurement": "TERMINAL_BW", "setting": "[…], time 14 day", "result": 321.8, "unit": "g"}, {"measurement": "TERMINAL_BW", "setting": "[…], time 28 day", "result": 408.3, "unit": "g"}, {"measurement": "APTT", "setting": "[…], time 7 day", "result": 23.4, "unit": "s"}, {"measurement": "Bas", "setting": "[…], time 7 day", "result": 0, "unit": "%"}, {"measurement": "Eos", "setting": "[…], time 7 day", "result": 1, "unit": "%"}, {"measurement": "Fbg", "setting": "[…], time 7 day", "result": 300, "unit": "mg/dL"}, {"measurement": "Hb", "setting": "[…], time 7 day", "result": 12.9, "unit": "g/dL"}, {"measurement": "Ht", "setting": "[…], time 7 day", "result": 39.7, "unit": "%"}, {"measurement": "Lym", "setting": "[…], time 7 day", "result": 77.8, "unit": "%"}, {"measurement": "MCH", "setting": "[…], time 7 day", "result": 20.4, "unit": "pg"}, {"measurement": "MCHC", "setting": "[…], time 7 day", "result": 32.5, "unit": "%"}, {"measurement": "MCV", "setting": "[…], time 7 day", "result": 62.4, "unit": "fL"}, {"measurement": "Mono", "setting": "[…], time 7 day", "result": 2.8, "unit": "%"}, {"measurement": "Neu", "setting": "[…], time 7 day", "result": 17.4, "unit": "%"}, {"measurement": "PT", "setting": "[…], time 7 day", "result": 15.9, "unit": "s"}, {"measurement": "Plat", "setting": "[…], time 7 day", "result": 106.5, "unit": "x10_4/uL"}, {"measurement": "RBC", "setting": "[…], time 7 day", "result": 637.2, "unit": "x10_4/ul"}, {"measurement": "Ret", "setting": "[…], time 7 day", "result": 6, "unit": "%"}, {"measurement": "WBC", "setting": "[…], time 7 day", "result": 115.8, "unit": "x10_2/uL"}, {"measurement": "APTT", "setting": "[…], time 14 day", "result": 22.2, "unit": "s"}, {"measurement": "Bas", "setting": "[…], time 14 day", "result": 0, "unit": "%"}, {"measurement": "Eos", "setting": "[…], time 14 day", "result": 0.8, "unit": "%"}, {"measurement": "Fbg", "setting": "[…], time 14 day", "result": 310.6, "unit": "mg/dL"}, {"measurement": "Hb", "setting": "[…], time 14 day", "result": 12.8, "unit": "g/dL"}, {"measurement": "Ht", "setting": "[…], time 14 day", "result": 39.4, "unit": "%"}, {"measurement": "Lym", "setting": "[…], time 14 day", "result": 80.6, "unit": "%"}, {"measurement": "MCH", "setting": "[…], time 14 day", "result": 21, "unit": "pg"}, {"measurement": "MCHC", "setting": "[…], time 14 day", "result": 32.4, "unit": "%"}, {"measurement": "MCV", "setting": "[…], time 14 day", "result": 64.8, "unit": "fL"}, {"measurement": "Mono", "setting": "[…], time 14 day", "result": 1.8, "unit": "%"}, {"measurement": "Neu", "setting": "[…], time 14 day", "result": 16.2, "unit": "%"}, {"measurement": "PT", "setting": "[…], time 14 day", "result": 16.1, "unit": "s"}, {"measurement": "Plat", "setting": "[…], time 14 day", "result": 107.7, "unit": "x10_4/uL"}, {"measurement": "RBC", "setting": "[…], time 14 day", "result": 608.6, "unit": "x10_4/ul"}, {"measurement": "Ret", "setting": "[…], time 14 day", "result": 8.8, "unit": "%"}, {"measurement": "WBC", "setting": "[…], time 14 day", "result": 96.5, "unit": "x10_2/uL"}, {"measurement": "APTT", "setting": "[…], time 28 day", "result": 25.3, "unit": "s"}, {"measurement": "Bas", "setting": "[…], time 28 day", "result": 0, "unit": "%"}, {"measurement": "Eos", "setting": "[…], time 28 day", "result": 1, "unit": "%"}, {"measurement": "Fbg", "setting": "[…], time 28 day", "result": 307.6, "unit": "mg/dL"}, {"measurement": "Hb", "setting": "[…], time 28 day", "result": 14.8, "unit": "g/dL"}, {"measurement": "Ht", "setting": "[…], time 28 day", "result": 43.5, "unit": "%"}]}]}
